{
  "source": "patent US20040127575A1",
  "about": "“Method for counteracting a pathologic change in the beta-adrenergic pathway” (priority 2002, published 2004)",
  "molecules": {"B1": {"name": "IL-1β: IL-1β, cytokine applied to rat cardiomyocytes (protein, UniProt Q63264 117-268, looked up)", "Interleukin-1 beta": "VPIRQLHCRLRDEQQKCLVLSDPCELKALHLNGQNISQQVVFSMSFVQGETSNDKIPVALGLKGLNLYLSCVMKDGTPTLQLESVDPKQYPKKKMEKRFVFNKIEVKTKVEFESAQFPNWYISTSQAEHRPVFLGNSNGRDIVDFTMEPVSS"}, "B2": {"name": "activin A: Activin A obtained from R&D System (protein, UniProt P08476 311-426, looked up)", "Inhibin beta A chain": "GLECDGKVNICCKKQFFVSFKDIGWNDWIIAPSGYHANYCEGECPSHIAGTSGSSLSFHSTVINHYRMRGHSPFANLKSCCVPTKLRPMSMLYYDDGQNIIKKDIQNMIVEECGCS"}},
  "key": {"[1]": {"tested_on": "rat neonatal cardiomyocytes", "assay": "cyclic AMP accumulation in rat neonatal cardiomyocytes (EIA)", "details": "for attenuation of isoproterenol-stimulated cAMP accumulation: 1 μM isoproterenol, 200 nM antagonist; for β2AR response/AC activity (procaterol, forskolin): FIG. 11", "protocol": "Ventricular cardiomyocytes were isolated from neonatal rat hearts as described before and seeded to fibronectin coated plates in DMEM21 and Coon's F12 with 10% FBS. […] Myocytes were used within 24 to 72 hr after isolation.\nFor pretreatment, cells were washed once in serum-free media (SFM) supplemented with 0.1% bovine serum albumin (BSA) and incubated with TGF-β1 in the presence or absence of inhibitors in the same media. Control cells were treated with the appropriate vehicles.\nHBSMC or rat neonatal cardiomyocytes were subcultured in 96-well or 24-well plates for 24 hr to 48 hr, then treated with TGFβ1 (1-2ng/ml), Activin A (10-50 ng/ml) and other drugs in 1% serum-containing or serum-free media. After 24 hr incubation, phosphodiesterase inhibitor, IBMX (200 uM) was added to fresh media for 10-15 min before exposure to either 10 uM procaterol, 1 uM isoproterenol, or 10-50 uM forskolin for 10 min to stimulate cAMP production. The stimulation medium was removed and cells were lysed in 0.1M HCl. cAMP levels were measured using Direct cAMP EIA kit from Assay Designs, Inc. following manufacture's instruction.\nSubsequent to treatment with TGF-β1 (1-2 ng/ml), cardiomyocytes (˜1×10^5 cells/well in 24-well plates) were incubated with phosphodiesterase inhibitor, IBMX (200 μM) for 30 min in SFM. Cells were then exposed to either procaterol (10 μM), forskolin (10-50 μM), or isoproterenol (Iso, 1 μM) for 10 min to allow for accumulation of cAMP. […] The incubations were terminated by removal of the medium. Cells in each well were lysed in 150 μl of 0.1 M HCl at room temperature (RT) for 30 min. Intracellular cAMP contents were measured using the Direct cAMP EIA kit following manufacture's instruction, and the cAMP levels were calculated in pmol/ml."}, "[2]": {"tested_on": "panel of related protein kinases", "assay": "panel of related protein kinases", "details": "relative to TGFβ-RI kinase"}, "[3]": {"tested_on": "human bronchial smooth muscle cells (hBSMC)", "assay": "cyclic AMP accumulation in hBSMC (EIA)", "format": "cell-based", "description": "Human bronchial smooth muscle cells (hBSMC) were purchased from Clonetics (BioWhittaker, Inc., Walkersville, Md.), and maintained in SmGM-2 containing 5% fetal bovine serum (Clonetics) at 37° C./5% CO2. All experiments were performed on cells at passages from 6 to 8. For pretreatment, cells were incubated in 1% serum-containing media or serum-free media in the presence or absence of TGFβ1, Activin A and other drugs. Control cells were treated with the appropriate vehicles."}, "TGF-β mediated fibrosis": {"tested_on": "TGF-β mediated fibrosis", "assay": "TGF-β mediated fibrosis in in vitro and in vivo models", "details": "several in vitro and in vivo models"}, "[4]": {"tested_on": "rat neonatal cardiomyocytes", "assay": "real-time RT-PCR of mRNA levels in cardiomyocytes", "details": "for β2-AR mRNA levels in cardiomyocytes: 24 hr pretreatment for TGF-β1", "quoted_text": "Total RNA was extracted from cells using Qiagen's RNAeasy kit (Valencia, Calif.), and analyzed by quantitative real time RT-PCR [Gibson UEM, Heid C A and Williams P M. Genome Res. 6, 995-1001, 1996] using an ABI Prism™ 7700 Sequence Detection System (PE Applied Biosystems, Foster City, Calif.). This system is based on the ability of the 5′nuclease activity of Taq polymerase to cleave a nonextendable dual-labeled fluorogenic hybridization probe during the extension phase of PCR. The probe is labeled with reporter fluorescent dye at the 5′ end and a quencher fluorescent dye (6-carboxy-tetramethyl-rhodamine) at the 3′ end. When the probe is intact, reporter emission is quenched by the physical proximity of the reporter and quencher fluorescent dyes. However, during the extension phase of PCR, the nucleolytic activity of the DNA polymerase cleaves the hybridization probe and releases the reporter dye from the probe with a concomitant increase in reporter fluorescence.\nSequence specific primers and probes were designed using Primer Express software (PE Applied Biosystems, Foster City, Calif.). […] Primers were used at a concentration of 200 nM and probes at 100 nM in each reaction. Multiscribe reverse transcriptase and AmpliTaq Gold polymerase (PE Applied Biosystems, Foster City Calif.) were used in all RT-PCR reactions and PCR reactions. RT-PCR parameters were as follows: 48° C. for 30 min (reverse transcription), 95° C. for 10 min (AmpliTaq Gold activation) and 40 cycles of 95° C. for 15 sec, 60° C. for 1 min. Relative quantitation of β1-AR, β2-AR, and 18S mRNA were calculated using the comparative threshold cycle number for each sample fitted to a five point standard curve (ABI Prism 7700 User Bulletin #2, PE Applied Biosystems, Foster City Calif.). Expression levels were normalized to 18S rRNA."}, "Smad2, Smad3": {"tested_on": "Smad2, Smad3", "assay": "Western blot of phospho-Smad2 and Smad3 in hBSMC", "format": "cell-based, human", "protocol": "(§1) After incubation with TGFβ1 and other drugs, cells were washed once with 1×PBS and lysed in 0.2 ml/plate cold RIPA buffer (phosphate buffered saline, pH 7.4, 1% NP-40, 0.5% sodium deoxycholate, 0.1% sodium dodecylsulfate, 1 mM sodium orthovanadate, 1 mM NaF, 1 mM β-glycerolphosphate, 1 uM okadaic acid, 10 ng/ml aprotinin, 10 ng/ml leupeptin, 1 mM phenymethylsulfonyl fluoride). Samples were clarified by centrifugation (4° C., 10 min, 15,000×g), and protein concentration was determined by BCA method (PIRCE). Lysates with equal amounts of total cell protein (15-20 ug) were separated on 10% SDS-NuPAGE (Invitrogen) and then transferred to nitrocellulose membrane. The membrane was blocked in 3% nonfat dry milk/TBST (10 mM Tris-HCl pH 7.5, 150 mM NaCl, 0.1% Tween 20) for 1 hr, and probed with anti-Smad2/3 mouse monoclonal antibody [Transduction Laboratories (S66220); 1:500 dilution in 3% milk/TBST], or anti-phospho-Smad2 (Ser465/467) rabbit antiserum [Cell Signaling (3101S); 1:500 dilution in 3% BSA/TBST] at 4° C. overnight. Donkey anti-mouse HRP [Santa Cruz (SC-2314); 1:2000 dilution] or donkey anti-rabbit HRP [Santa Cruz (SC-23130; 1:2000 dilution] were used as secondary antibody. Immunoreactivity was detected with chemiluminescence reagent (Santa Cruz) and visualized by exposing to x-ray film (Kodak)."}, "Smad2": {"tested_on": "Smad2", "assay": "Western blot of Smad2 phosphorylation in cardiomyocytes", "protocol": "as §1\nThe binding of primary antibodies was followed by incubation for 1 hour at RT with the secondary horseradish peroxidase (HRP) conjugated goat anti-mouse or goat anti-rabbit antibody (Santa Cruz Biotechnology). Immunoreactivity was detected with chemiluminescence reagents and visualized by exposing to x-ray film (Kodak)."}, "Smad2/3 and Smad4": {"tested_on": "Smad2/3 and Smad4", "assay": "immunofluorescence staining of Smad nuclear translocation in cardiomyocytes", "protocol": "The nuclear translocation of Smad proteins in response to TGF-β1 was determined by immunofluorescence staining with monoclonal anti-Smad2/3 antibody (BD Transduction Labarotories) and anti-Smad4 antibody (sc-7966) (Santa Cruz Biotechnology). Briefly, myocytes cultured on Lab-Tek chamber slides (Nalge Nunc International, Naperville, Ill.) coated with fibronectin and gelatin were fixed with 4% paraformaldehyde in PBS for 5 min, then penetrated with 0.1% saponin/1% normal goat serum (NGS) in PBS for 15 min. After blocking nonspecific binding with 5% NGS/0.05% saponin in PBS for 15 min, the slides were incubated with primary antibody in 1% NGS in PBS at 4° C. overnight. After another washing and blocking, slides were incubated with a biotinylated anti-mouse antibody for 30 min, followed by fluorescein isothiocyanate (FITC)-conjugated-avidin (Vector, Burlingame, Calif.) for 30 min. Slides were dried and mounted in Vectashield (Vector). Samples were analyzed by fluorescence microscopy."}, "TGFβ-RII receptor": {"biological_target": "TGFβ-RII receptor (Homo sapiens, UniProt P37173)", "sequence (P37173 23-567)": "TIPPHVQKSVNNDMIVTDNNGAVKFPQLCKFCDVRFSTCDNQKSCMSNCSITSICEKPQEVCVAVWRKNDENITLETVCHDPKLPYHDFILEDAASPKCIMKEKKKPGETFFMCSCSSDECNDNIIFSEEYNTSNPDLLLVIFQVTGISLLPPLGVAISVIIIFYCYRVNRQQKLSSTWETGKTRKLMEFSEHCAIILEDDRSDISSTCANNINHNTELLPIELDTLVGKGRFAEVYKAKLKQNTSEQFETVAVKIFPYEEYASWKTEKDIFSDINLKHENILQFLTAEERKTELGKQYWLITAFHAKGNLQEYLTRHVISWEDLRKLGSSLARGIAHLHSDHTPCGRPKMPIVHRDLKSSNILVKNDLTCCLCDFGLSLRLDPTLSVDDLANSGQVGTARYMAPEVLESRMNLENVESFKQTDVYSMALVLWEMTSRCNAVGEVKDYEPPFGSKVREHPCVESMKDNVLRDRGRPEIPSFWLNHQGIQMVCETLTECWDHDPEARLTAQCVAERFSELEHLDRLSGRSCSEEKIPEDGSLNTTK", "assay": "specificity against TGFβ-RII receptor", "details": "relative to TGFβ-RI kinase"}, "[5]": {"tested_on": "β2-AR receptor binding sites", "assay": "radioligand binding in cardiomyocytes", "format": "cell-based, rat", "description": "The radioligand binding assay was performed as described in Example 1. To define the nonspecific binding to β2-AR, 50 nM CGP-20712A were used.\nMembranes were then prepared and binding of 100 pm [^125]-CYP was measured for 2 hours at 23° C. using 8 μg membrane protein, and expressed as fmol/mg protein. Binding in the presence of 100 nM CGP-20712A was defined as binding to β2-AR, while binding in the presence of 100 μM propranolol was defined as non-specific binding. Subtraction of β2-AR binding from total binding was defined as β1-AR binding. The results are shown in FIG. 25 (p<0.05 vs. vehicle)."}, "[6]": {"tested_on": "β2-adrenergic receptors on cell surface", "assay": "radioligand binding with [3H]CGP-12177 on intact hBSMC", "format": "cell-based, human", "details": "TGFβ1 exposure", "description": "The number of β2-adrenergic receptors on cell surface was determined by radioligand binding using hydrophilic, membrane-impermeable β-adrenergic antagonist [^3H]CGP-12177. Intact hBSMCs in 10 cm dish were preincubated with 5 nM [^3H]-CGP 12177 in the presence or absence of 20 uM propranolol (to define the amount of nonspecific binding) in SmBM for 1 hour at 37° C. with very gentle shaking. Cells were washed 3 times with ice-cold 1×PBS containing 0.1% Tween-20 (binding buffer) and 3 more times with ice-cold 1×PBS. 400 μl of RIPA buffer containing protease inhibitors was added to the plates and cells were scraped off the plates. Cell lysates were collected and protein concentrations were determined by BCA method (PIERCE). The radioligand bound to the whole cell was quantified by liquid scintillation counter and normalized to the protein concentration."}, "β2AR mRNA": {"tested_on": "β2AR mRNA", "assay": "real-time quantitative PCR of β2AR mRNA in hBSMC", "format": "cell-based, human", "details": "TGFβ1 exposure", "text": "Expression levels were normalized to 18S rRNA."}},
  "note": "“And” between values parts separate entries of the source, which are not always exact repeats. Equal entries are not always repeated. “Also recorded” adds a separate entry of the source.",
  "data": [
    {"molecule": "CCC(NC(C)C)C(O)c1ccc(O)c2[nH]c(=O)ccc12", "note": "(centres unmarked) [procaterol, reference compound]", "values": [
      {"measurement": "cAMP accumulation by agonist", "setting": "[1]; 10 μM procaterol", "result": "substantially increased"}
    ]},
    {"molecule": "N#CC(=C(/N)Sc1ccccc1N)/C(C#N)=C(\\N)Sc1ccccc1N", "note": "[U0126, reference compound]", "values": [
      {"measurement": "β2-AR mediated (procaterol stimulated) cAMP accumulation after 24 hr TGF-β1 exposure, compared to vehicle", "setting": "[1]; Compound No. 79 200 nM, p38 inhibitor 0.5 μM, U-0126 5 μM, JNK inhibitor I 5 μM, TGF-β1 1 ng/ml", "result": "No significant effects; also recorded: did not affect"}
    ]},
    {"molecule": "Cc1ccc(OCC(O)C(C)NC(C)C)c2c1CCC2", "note": "(centres unmarked) [ICI 118, 551, reference compound]", "values": [
      {"measurement": "attenuation of isoproterenol-stimulated cAMP accumulation", "setting": "[1]", "result": "~25", "unit": "%"}
    ]},
    {"molecule": "Fc1ccc(Cl)cc1-c1nc(Nc2ccncc2)c2nccnc2n1", "note": "[Compound No. 79]", "values": [
      {"measurement": "specificity over members of a panel of related protein kinases", "setting": "[2]", "result": "at least 20 fold"},
      {"measurement": "effect on TGFβ1-induced loss of adrenergic responsiveness in hBSMC", "setting": "[3]; FIG. 4", "result": "prevents"},
      {"measurement": "effect on TGF-β mediated fibrosis", "setting": "TGF-β mediated fibrosis", "result": "able to block"},
      {"measurement": "effect on TGFβ1-induced loss of β2AR response and AC activity", "setting": "[1]; Example 1, FIG. 9", "result": "prevents"},
      {"measurement": "basal cAMP levels in cardiomyocytes", "setting": "[1]; higher concentration", "result": "increased"},
      {"measurement": "isoproterenol or forskolin induced cAMP accumulation in TGF-β1 treated cardiomyocytes", "setting": "[1]; pre-incubation, Compound No. 79 200 nM", "result": "preserved"},
      {"measurement": "effect on TGF-β1 induced down-regulation of β2-AR mRNA", "setting": "[4]; 5 ng/ml TGF-β1, 24 hr, dose-dependent", "result": "reversed"},
      {"measurement": "effect on activin-induced down-regulation of β2AR mRNA", "setting": "[4]; FIG. 10", "result": "prevented"},
      {"measurement": "effect on decreased AC5 and AC6 mRNA levels in TGF-β1 treated cardiomyocytes", "setting": "[4]; dose-dependent", "result": "inhibited"},
      {"measurement": "effect on TGF-β1 induced down-regulation of Smad3 mRNA", "setting": "[4]; dose-dependent, within 24 hr", "result": "blocked"},
      {"measurement": "mRNA levels of β2-AR in TGFβ1 treated cells", "setting": "[4]; high doses (400-1000 nM)", "result": "higher than that in control cells"},
      {"measurement": "effect on TGFβ1-induced Smad2 phosphorylation and Smad3 down-regulation in hBSMC", "setting": "Smad2, Smad3; FIG. 13", "result": "blocks"},
      {"measurement": "effect on TGF-β1 induced Smad2 phosphorylation/activation", "setting": "Smad2; pre-incubation, Compound No. 79 at 400 nM, 1 hr and 24 hr", "result": "significantly blocked"},
      {"measurement": "basal phosphorylation of Smad2", "setting": "Smad2; resting cardiomyocytes", "result": "blocked"},
      {"measurement": "effect on TGF-β1 induced Smad2/3 and Smad4 translocation into the nucleus", "setting": "Smad2/3 and Smad4; 400 nM", "result": "completely abolished"},
      {"measurement": "specificity against TGFβ-RII receptor", "setting": "TGFβ-RII receptor", "result": "> 100", "unit": "fold"}
    ]},
    {"molecule": "TGF-β1: Human recombinant transforming growth factor-β1 from R&D System", "values": [
      {"measurement": "time course of loss of β2AR response (procaterol-induced cAMP) in hBSMC", "setting": "[3]; more profound at 24 hr or later", "result": "after 12 hr"},
      {"measurement": "time course of effect on AC activity (forskolin-induced cAMP) in hBSMC", "setting": "[3]; to a lesser extent", "result": "only observed 24 hr later"},
      {"measurement": "β2-AR receptor binding sites in cardiomyocytes", "setting": "[5]", "result": "trend to decrease"},
      {"measurement": "reduction in procaterol-stimulated cAMP accumulation", "setting": "[1]; TGF-β1 1 ng/ml pre-treatment 24 hr, 10 μM procaterol, maximal effect", "result": "59±5.2% and ~60%"},
      {"measurement": "cAMP accumulation stimulated by forskolin", "setting": "[1]; TGF-β1 exposure, 25 μM forskolin", "result": "decreased"},
      {"measurement": "decrease of cAMP accumulation when β2-ARs selectively stimulated by isoproterenol in the presence of CGP-20712A", "setting": "[1]; TGF-β1 pretreatment 24 hr", "result": "~65", "unit": "%"},
      {"measurement": "reduction in β1-AR mediated cAMP accumulation (isoproterenol in the presence of ICI 118, 551)", "setting": "[1]; TGF-β1 pretreatment 24 hr", "result": "16.5±3.1", "unit": "%"},
      {"measurement": "Smad7 mRNA in cardiomyocytes", "setting": "[4]", "result": "up-regulated"},
      {"measurement": "β1-AR mRNA levels in cardiomyocytes", "setting": "[4]", "result": "did not significantly alter"},
      {"measurement": "β2-AR mRNA levels in cardiomyocytes", "setting": "[4]", "result": "decreased β2-AR mRNA levels dramatically"},
      {"measurement": "earliest time of suppression of β2-AR mRNA", "setting": "[4]; after treatment", "result": 1, "unit": "h"},
      {"measurement": "expression of βARK1, Gsα, Giα-1, Giα-3", "setting": "[4]; message or protein levels", "result": "did not alter"},
      {"measurement": "mRNA levels of AC5 and AC6", "setting": "[4]; time-dependent", "result": "significant reduction"},
      {"measurement": "Smad3 mRNA in cardiomyocytes", "setting": "[4]; within 24 hr", "result": "down-regulated"},
      {"measurement": "Smad2 phosphorylation in hBSMC", "setting": "Smad2, Smad3", "result": "induces"},
      {"measurement": "Smad3 expression in hBSMC", "setting": "Smad2, Smad3", "result": "down-regulated"},
      {"measurement": "time of peak serine phosphorylation of Smad2", "setting": "Smad2; maintained for 24 hr", "result": 1, "unit": "h"},
      {"measurement": "βAR binding sites on hBSMC", "setting": "[6]", "result": "reduces"},
      {"measurement": "Smad2/3 and Smad4 fluorescence staining in the nucleus", "setting": "Smad2/3 and Smad4; stimulation for 1 hr", "result": "dramatically increased"},
      {"measurement": "β2AR mRNA in hBSMC", "setting": "β2AR mRNA", "result": "significantly reduces"}
    ]},
    {"molecule": "Cn1cc(C(F)(F)F)nc1-c1ccc(OCC(O)CNCCOc2ccc(O)c(C(N)=O)c2)cc1", "note": "(centres unmarked) [CGP-20712A, reference compound]", "values": [
      {"measurement": "attenuation of isoproterenol-stimulated cAMP accumulation", "setting": "[1]", "result": "~75", "unit": "%"}
    ]},
    {"molecule": "B1", "values": [
      {"measurement": "β2AR response/AC activity (procaterol, forskolin)", "setting": "[1]", "result": "induces loss"}
    ]},
    {"molecule": "B2", "values": [
      {"measurement": "βAR response and AC activity in hBSMC", "setting": "[3]; higher concentration", "result": "causes loss of βAR response as well as reduced AC activity"},
      {"measurement": "β2AR response/AC activity (procaterol, forskolin)", "setting": "[1]", "result": "induces loss"},
      {"measurement": "β2-AR mRNA levels in cardiomyocytes", "setting": "[4]", "result": "down-regulated"}
    ]}
  ]
}
